Measurements reported in patent US20100267561A1, “HERBICIDAL PYRIDAZINONE DERIVATIVES” (priority 2007, published 2010).

How the values were obtained:
Assay type in all cases: in vivo
[1] = tested on: wild oat (AVEFA, Avena fatua); assay: Test G mixtures of Compound 26 with crop safeners, postemergence plant response; details: applied alone, 125 g a.i./ha
Description: (§1) This test evaluated the effect of mixtures of Compound 26 with commercial crop safeners cloquintocet-mexyl, mefenpyr-diethyl, and fenchlorazole-ethyl on three plant species. Seeds of winter wheat (TRZAW, Triticum aestivum), winter barley (HORVX, Hordeum vulgare), and wild oat (AVEFA, Avena fatua) (a weed) were planted into a silt loam soil. Plants from these seeds were treated postemergence using test chemicals formulated in a non-phytotoxic solvent mixture that included a surfactant. Plants ranged in height from 6 to 10 cm (2- to 3-leaf stage).
(§2) Plants were grown in a greenhouse using supplemental lighting to maintain a photoperiod of about 14 hours; daytime and nighttime temperatures were about 22-26° C. and 15-19° C., respectively. Balanced fertilizer was applied through the watering system. Treatments consisted of Compound 26 and the above mentioned safeners alone and in combination using a spray volume of 281 L/ha. Each treatment was replicated four times. Treated plants and controls were maintained in a greenhouse for 15 days, after which time all treated plants were compared to controls and visually evaluated. Plant response ratings were calculated as the means of the four replicates based on a scale of 0 to 100 where 0 is no effect and 100 is complete control and are summarized in Tables G1 to G3. Because the safeners alone caused no injury at the rates tested, the expected effect of a mixture of Compound 26 with a safener is the same as the observed effect of Compound 26 alone.
(§3) The highest application rate of each safener was tested alone to confirm the absence of herbicidal activity on the test species when appled postemergence at 125 g ai/ha. Therefore, an extrapolated result of zero for each safener alone at 16, 31, or 62 g ai/ha was used to calculate the mixture response of Compound 26 and these safener application rates.

[2] = tested on: winter barley (HORVX, Hordeum vulgare); assay: as above; details: applied alone, 125 g a.i./ha
Description: as §1, §2, §3

[3] = tested on: winter wheat (TRZAW, Triticum aestivum); assay: as above; details: applied alone, 125 g a.i./ha
Description: as §1, §2, §3

corn (Zea mays) = assay: Test A pre-/postemergence plant response
Source text: (§4) Seeds of species selected from barnyardgrass (Echinochloa crus-galli), large crabgrass (Digitaria sanguinalis), giant foxtail (Setaria faberi), blackgrass (Alopecurus myosuroides), canarygrass (Phalaris minor), morningglory (Ipomoea coccinea), pigweed (Amaranthus retroflexus), velvetleaf (Abutilon theophrasti), wheat (Triticum aestivum), and corn (Zea mays) were planted into a blend of loam soil and sand and treated preemergence with a directed soil spray using test chemicals formulated in a non-phytotoxic solvent mixture which included a surfactant. At the same time these species were also treated with postemergence applications of test chemicals formulated in the same manner.
(§5) Plants ranged in height from 2 to 10 cm and were in the one- to two-leaf stage for the postemergence treatment. Treated plants and untreated controls were maintained in a greenhouse for approximately 10 days, after which time all treated plants were compared to untreated controls and visually evaluated for injury. Plant response ratings, summarized in Table A, are based on a 0 to 100 scale where 0 is no effect and 100 is complete control. A dash (-) response means no test results.

[4] = tested on: barnyardgrass (Echinochloa crus-galli); assay: Test A pre-/postemergence plant response
Source text: as §4, §5

[5] = tested on: blackgrass (Alopecurus myosuroides); assay: Test A pre-/postemergence plant response
Source text: as §4, §5

[6] = tested on: canarygrass (Phalaris minor); assay: Test A pre-/postemergence plant response
Source text: as §4, §5

[7] = tested on: large crabgrass (Digitaria sanguinalis); assay: Test A pre-/postemergence plant response
Source text: as §4, §5

[8] = tested on: giant foxtail (Setaria faberi); assay: Test A pre-/postemergence plant response
Source text: as §4, §5

[9] = tested on: pigweed (Amaranthus retroflexus); assay: Test A pre-/postemergence plant response
Source text: as §4, §5

[10] = tested on: wheat (Triticum aestivum); assay: Test A pre-/postemergence plant response
Source text: as §4, §5

[11] = tested on: barnyardgrass (Echinochloa crus-galli); assay: Test B flooded paddy test plant response
Procedure, shortened: (§6)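 2-leaf plants; pots flooded 3 cm above soil; compound added to paddy water; depth maintained. Greenhouse 13–15 d. Visual rating vs controls, 0 (no effect) to 100 (complete control); dash = no result.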

rice (Oryza sativa) = assay: Test B flooded paddy test plant response
Procedure, shortened: as §6

[12] = tested on: ducksalad (Heteranthera limosa); assay: Test B flooded paddy test plant response
Procedure, shortened: as §6

[13] = tested on: umbrella sedge (Cyperus difformis); assay: Test B flooded paddy test plant response
Procedure, shortened: as §6

[14] = tested on: morningglory (Ipomoea coccinea); assay: Test A pre-/postemergence plant response
Source text: as §4, §5

[15] = tested on: velvetleaf (Abutilon theophrasti); assay: Test A pre-/postemergence plant response
Source text: as §4, §5

[16] = Postemergence, 31 g ai/ha, 0 to 100 scale, 0 no effect, 100 complete control
[17] = Postemergence, 125 g ai/ha, 0 to 100 scale, 0 no effect, 100 complete control
[18] = Preemergence, 31 g ai/ha, 0 to 100 scale, 0 is no effect, 100 is complete control
[19] = Preemergence, 125 g ai/ha, 0 to 100 scale (0 no effect, 100 complete control)
[20] = Flood (flooded paddy test), 62 g ai/ha, scale 0 to 100, 0 no effect, 100 complete control
[21] = Flood (flooded paddy test), 125 g ai/ha, scale 0 to 100, 0 no effect, 100 complete control
[22] = Flood (flooded paddy test), 250 g ai/ha, scale 0 to 100, 0 no effect, 100 complete control
[23] = Flood, 31 g ai/ha, scale 0 to 100
[24] = Flood, 62 g ai/ha, scale 0 to 100

Structure (SMILES): CCOC(=O)C1=NN(c2ccc(Cl)cc2Cl)C(C)(C(=O)OCC)C1 (stereo not drawn) [mefenpyr-diethyl]
- AVEFA Obsd. (observed effect) plant response rating, scale 0 to 100 [1]: 0
- HORVX Obsd. (observed effect) plant response rating, scale 0 to 100 [2]: 0
- TRZAW Obsd. (observed effect) plant response rating, scale 0 to 100 [3]: 0

Structure (SMILES): CC(C)Cc1cc(-c2ccc(Cl)cc2)nn1-c1c(O)cnn(C)c1=O [Compound 92]
- Plant response rating, Corn (corn (Zea mays); [16]): 0
- Plant response rating, Corn (corn (Zea mays); [17]): 20
- Plant response rating, Corn (corn (Zea mays); [18]): 0
- Plant response rating, Corn (corn (Zea mays); [19]): 20
- Plant response rating, Barnyardgrass [4, 16]: 0
- Plant response rating, Barnyardgrass [4, 17]: 80
- Plant response rating, Barnyardgrass [4, 18]: 0
- Plant response rating, Barnyardgrass [4, 19]: 20
- Plant response rating, Blackgrass [5, 16]: 0
- Plant response rating, Blackgrass [5, 17]: 50
- Plant response rating, Blackgrass [5, 18]: 0
- Plant response rating, Blackgrass [5, 19]: 0
- Plant response rating, Canarygrass [6, 16]: 0
- Plant response rating, Canarygrass [6, 17]: 30
- Plant response rating, Canarygrass [6, 18]: 0
- Plant response rating, Canarygrass [6, 19]: 10
- Plant response rating, Crabgrass, Large [7, 16]: 0
- Plant response rating, Crabgrass, Large [7, 17]: 10
- Plant response rating, Crabgrass, Large [7, 18]: 0
- Plant response rating, Crabgrass, Large [7, 19]: 20
- Plant response rating, Foxtail, Giant [8, 16]: 10
- Plant response rating, Foxtail, Giant [8, 17]: 60
- Plant response rating, Foxtail, Giant [8, 18]: 0
- Plant response rating, Foxtail, Giant [8, 19]: 50
- Plant response rating, Pigweed [9, 16]: 0
- Plant response rating, Pigweed [9, 17]: 0
- Plant response rating, Pigweed [9, 18]: 0
- Plant response rating, Pigweed [9, 19]: 0
- Plant response rating, Wheat [10, 16]: 0
- Plant response rating, Wheat [10, 17]: 30
- Plant response rating, Wheat [10, 18]: 0
- Plant response rating, Wheat [10, 19]: 0

Structure (SMILES): Cc1cc(-c2ccc(Cl)cc2)nn1-c1c(OS(=O)(=O)C2CC2)cnn(C)c1=O [Compound 49]
- Plant response rating, Barnyardgrass [11, 20]: 0
- Plant response rating, Barnyardgrass [11, 21]: 0
- Plant response rating, Barnyardgrass [11, 22]: 0
- Plant response rating, Barnyardgrass [11, 23]: 0
- Plant response rating, Rice (rice (Oryza sativa); [20]): 0
- Plant response rating, Rice (rice (Oryza sativa); [21]): 0
- Plant response rating, Rice (rice (Oryza sativa); [22]): 0
- Plant response rating, Rice (rice (Oryza sativa); [23]): 0
- Plant response rating, Ducksalad [12, 20]: 0
- Plant response rating, Ducksalad [12, 22]: 0
- Plant response rating, Ducksalad [12, 23]: 0
- Plant response rating, Sedge, Umbrella [13, 20]: 0
- Plant response rating, Sedge, Umbrella [13, 21]: 0
- Plant response rating, Sedge, Umbrella [13, 22]: 0
- Plant response rating, Sedge, Umbrella [13, 23]: 0
- Plant response rating, Corn (corn (Zea mays); [16]): 0
- Plant response rating, Corn (corn (Zea mays); [17]): 0
- Plant response rating, Corn (corn (Zea mays); [18]): 0
- Plant response rating, Corn (corn (Zea mays); [19]): 0
- Plant response rating, Morningglory [14, 16]: 0
- Plant response rating, Morningglory [14, 17]: 0
- Plant response rating, Morningglory [14, 18]: 0
- Plant response rating, Morningglory [14, 19]: 0
- Plant response rating, Barnyardgrass [4, 16]: 0
- Plant response rating, Barnyardgrass [4, 17]: 0
- Plant response rating, Barnyardgrass [4, 18]: 0
- Plant response rating, Barnyardgrass [4, 19]: 0
- Plant response rating, Crabgrass, Large [7, 16]: 0
- Plant response rating, Crabgrass, Large [7, 17]: 20
- Plant response rating, Crabgrass, Large [7, 18]: 0
- Plant response rating, Crabgrass, Large [7, 19]: 40
- Plant response rating, Foxtail, Giant [8, 16]: 0
- Plant response rating, Foxtail, Giant [8, 17]: 20
- Plant response rating, Foxtail, Giant [8, 18]: 0
- Plant response rating, Foxtail, Giant [8, 19]: 80
- Plant response rating, Pigweed [9, 16]: 0
- Plant response rating, Pigweed [9, 17]: 0
- Plant response rating, Pigweed [9, 18]: 0
- Plant response rating, Pigweed [9, 19]: 0
- Plant response rating, Velvetleaf [15, 16]: 0
- Plant response rating, Velvetleaf [15, 17]: 0
- Plant response rating, Velvetleaf [15, 18]: 0
- Plant response rating, Velvetleaf [15, 19]: 0
- Plant response rating, Wheat [10, 16]: 0
- Plant response rating, Wheat [10, 17]: 0
- Plant response rating, Wheat [10, 18]: 0
- Plant response rating, Wheat [10, 19]: 0

Structure (SMILES): CCOC(=O)c1nc(C(Cl)(Cl)Cl)n(-c2ccc(Cl)cc2Cl)n1 [fenchlorazole-ethyl]
- AVEFA Obsd. (observed effect) plant response rating, scale 0 to 100 [1]: 0
- HORVX Obsd. (observed effect) plant response rating, scale 0 to 100 [2]: 0
- TRZAW Obsd. (observed effect) plant response rating, scale 0 to 100 [3]: 0

Structure (SMILES): CCc1cc(-c2ccc(Cl)cc2)nn1-c1c(O)c(C)nn(C)c1=O [Compound 86]
- Plant response rating, Barnyardgrass [11, 22]: 40
- Plant response rating, Barnyardgrass [11, 24]: 0
- Plant response rating, Rice (rice (Oryza sativa); [22]): 35
- Plant response rating, Rice (rice (Oryza sativa); [24]): 30
- Plant response rating, Ducksalad [12, 22]: 65
- Plant response rating, Ducksalad [12, 24]: 30
- Plant response rating, Sedge, Umbrella [13, 22]: 55
- Plant response rating, Sedge, Umbrella [13, 24]: 0
- Plant response rating, Corn (corn (Zea mays); [16]): 30
- Plant response rating, Corn (corn (Zea mays); [17]): 90
- Plant response rating, Corn (corn (Zea mays); [18]): 0
- Plant response rating, Corn (corn (Zea mays); [19]): 40
- Plant response rating, Barnyardgrass [4, 16]: 100
- Plant response rating, Barnyardgrass [4, 17]: 100
- Plant response rating, Barnyardgrass [4, 18]: 50
- Plant response rating, Barnyardgrass [4, 19]: 100
- Plant response rating, Blackgrass [5, 16]: 80
- Plant response rating, Blackgrass [5, 17]: 100
- Plant response rating, Blackgrass [5, 18]: 50
- Plant response rating, Blackgrass [5, 19]: 90
- Plant response rating, Canarygrass [6, 17]: 100
- Plant response rating, Canarygrass [6, 19]: 100
- Plant response rating, Crabgrass, Large [7, 16]: 70
- Plant response rating, Crabgrass, Large [7, 17]: 100
- Plant response rating, Crabgrass, Large [7, 18]: 10
- Plant response rating, Crabgrass, Large [7, 19]: 90
- Plant response rating, Foxtail, Giant [8, 16]: 70
- Plant response rating, Foxtail, Giant [8, 17]: 90
- Plant response rating, Foxtail, Giant [8, 18]: 10
- Plant response rating, Foxtail, Giant [8, 19]: 100
- Plant response rating, Pigweed [9, 16]: 0
- Plant response rating, Pigweed [9, 17]: 0
- Plant response rating, Pigweed [9, 18]: 0
- Plant response rating, Pigweed [9, 19]: 0
- Plant response rating, Wheat [10, 16]: 20
- Plant response rating, Wheat [10, 17]: 50
- Plant response rating, Wheat [10, 18]: 0
- Plant response rating, Wheat [10, 19]: 40
